Measured values as given in patent US4154852A, “Novel aminobenzocycloheptenes” (Roussel Uclaf, priority 1976, dated 1979).

Legend:
[1] = test system: effects of nialamide (monoamine oxidase inhibitor); assay: Potentialization of effects of monoamine oxidase inhibitor (nialamide) in mice, actimetric measurement; format: in vivo; settings: nialamide 100 mg/kg i.p. 30 minutes before, 6 hours
Protocol: The administration of a monoamine oxidase inhibitor to mice induces a hyperactive movement of the animals which is able to be potentialized by an antidepressant. Using the procedure of Carlsson et al [Brain Research, Vol. 12 (1969), p. 456], a dose of 100 mg/kg of nialamide was intraperitoneally administered to mice 30 minutes before the intraperitoneal administration of the tested product and the values of actimetric measurements were recorded every 30 minutes for 6 hours. Potentialization of the effects of nialamide for the tested product was expressed in increasing number of + signs for a determined dose in mg/kg.

uptake of 14C-5HT = assay: Inhibition of serotonine uptake in vivo (synaptosomes prepared after administration to rats); design: key: the activity was expressed in increasing number of + signs; ++: the activity was expressed in increasing number of + signs; +++: the activity was expressed in increasing number of + signs; settings: 5 to 20 mg/kg i.p., female rats 19 to 21 days old, brain removed after 30 minutes
Protocol: (§1) The inhibition of serotonine (5HT) uptake was measured in impure synaptosomes prepared from the entire brain of a female rat 19 to 21 days old using the technique of Kannengiesser et al. [Biochemical Pharmacology,Vol. 22, (1973) p. 73]. Diverse concentrations of the products were placed in an incubator with the preparation at 37° C. for 5 minutes in the presence of 14 C-5HT at a concentration of 10^-7 M. The 50% inhibiting concentration (IC50), dose which inhibits by 50% the uptake of 14C-5HT in the synaptosomes was determined graphically and the IC50 dose for the compounds is reported in Table V.
The tested products were intraperitoneally administered to groups of female rats 19 to 21 days old at doses of 5 to 20 mg/kg. After 30 minutes, the brain was removed and synaptosomes were prepared and placed in an incubator in the presence of 14 C-5HT as indicated in the previous test.

serotonine (5HT) uptake = assay: Inhibition of serotonine uptake in vitro (14C-5HT, impure brain synaptosomes); format: biochemical, female rat; settings: rat brain synaptosomes, 37° C., 5 minutes, 14 C-5HT 10^-7 M; read-out: Test in vitro I.C. 50 (inhibition of 14C-5HT uptake)
Protocol: as §1

effects of L-dopa = assay: Potentialization of effects of L-dopa in iproniazide-pretreated mice; format: in vivo; settings: Mus musculus, ip; i.p. one hour before L-dopa 100 mg/kg i.p.; iproniazide 75 mg/kg i.p. 18 hours before; male mice; read-out: ED50 (dose which potentializes by 50% the L-dopa effects)
Protocol: The administration of L-dopa to mice pretreated 18 hours previously with iproniazide produced certain number of symptoms; muscular hypertonicity, hyperactivity, agitation, crying, aggressiveness, salivation and exophthalmy. The intensity of these effects is potentialized by administration of an antidepressant one hour before the administration of L-dopa. Male mice received intraperitoneally 75 mg/kg of iproniazide 18 hours before the start of the test and the tested product was intraperitoneally administered in aqueous solution in increasing doses. One hour later, L-dopa was intraperitoneally administered at a dose of 100 mg/kg and the different symptoms were observed 15 and 30 minutes later. They were evaluated on a scale of 0 to 3 for each animal and the totals for each dose were determined.

Acute toxicity in mice = settings: mouse, in vivo, ip, intraperitoneal, determined 48 hours later, read-out: DL50 (dose which kills 50% of mice)
Protocol: The DL50 dose which kills 50% of mice after intraperitoneal administration of the tested compound was determined 48 hours later and the DL50 for the compounds is reported in Table IV.

[2] = test system: 5-hydroxytryptophane (5 HTP) effects; assay: Potentialization of 5 HTP effects (trembling) in mice; format: in vivo; settings: Mus musculus, i.p. one hour before 200 mg/kg 5-HTP i.p., observed every 15 minutes for one hour, read-out: MAD (minimum active dose), potentialization of 5 HTP effects
Protocol: The administration of 5-hydroxytryptophane (5 HTP) to mice pretreated with an antidepressant induces in the mice a particular behaviour namely the appearance of trembling.
The test product was intraperitoneally administered in increasing doses one hour before the intraperitoneal administration of 200 mg/kg of 5-HTP and the symptoms were observed were noted every 15 minutes for one hour to determine the minimum active dose (MAD) of the test product.

CNC1C=Cc2cc(OC)ccc2CC1.Cl (stereo not shown) [Example 3, 2-methoxy-7-methylamino-6,7-dihydro [5H] benzocycloheptene hydrochloride]
Potentialization of Nialamide ([1]; tested product 1 mg/kg i.p.): +
Potentialization of Nialamide ([1]; tested product 5 mg/kg i.p.): ++
In vivo Test (relative power to inhibit the uptake of 14C-5HT) (uptake of 14C-5HT): ++
IC50 (serotonine (5HT) uptake): 270 nM
ED50 (effects of L-dopa): 5 mg/kg
LD50 at 48 h (Acute toxicity in mice): 50 mg/kg

CNC1C=Cc2cc([N+](=O)[O-])ccc2CC1.Cl (stereo not shown) [Example 1, 2-nitro-7-methylamino-6,7-dihydro [5H] benzocycloheptene hydrochloride]
Potentialization of Nialamide ([1]; tested product 5 mg/kg i.p.): +
Potentialization of Nialamide ([1]; tested product 20 mg/kg i.p.): ++
In vivo Test (relative power to inhibit the uptake of 14C-5HT) (uptake of 14C-5HT): +++
IC50 (serotonine (5HT) uptake): 320 nM
ED50 (effects of L-dopa): 1 mg/kg
minimal effective dose [2]: 10 mg/kg
LD50 at 48 h (Acute toxicity in mice): 75 mg/kg

CNC1C=Cc2cc(O)ccc2CC1.Cl (stereo not shown) [Example 4, 7-methylamino-6,7-dihydro [5H] benzocycloheptene-2-ol hydrochloride]
IC50 (serotonine (5HT) uptake): 380 nM
LD50 at 48 h (Acute toxicity in mice): 50 mg/kg

CNC1C=Cc2cc(N)ccc2CC1.O=C(O)/C=C/C(=O)O (stereo not shown) [Example 2, 2-amino-7-methylamino-6,7-dihydro [5H] benzocycloheptene fumarate]
Potentialization of Nialamide ([1]; tested product 5 mg/kg i.p.): +
Potentialization of Nialamide ([1]; tested product 20 mg/kg i.p.): ++
In vivo Test (relative power to inhibit the uptake of 14C-5HT) (uptake of 14C-5HT): +
IC50 (serotonine (5HT) uptake): 4000 nM
ED50 (effects of L-dopa): 10 mg/kg
minimal effective dose [2]: 5 mg/kg
LD50 at 48 h (Acute toxicity in mice): 75 mg/kg
